Reference: US8058314B2, “Conductance of improperly folded proteins through the secretory pathway and related methods for treating disease” (Yale University, priority 1999, dated 2011)

System: ΔF508 CFTR
Experiment: Immunofluorescence localization of CFTR in CFBE290− airway epithelial cells
Assay type: cell-based, human
Description: CFPAC and CFBE290^− epithelial cells were grown to confluence on 0.45 micron Transwell filter inserts (Corning Costar, Cambridge, Mass.) under the same conditions described for the short circuit current measurements. Prior to immunofluorescence analysis, filter grown cell monolayers were treated for 90 min with 1 μM thapsigargin at 37° C., present in both the apical and basolateral media compartments. The media was then changed to standard Iscove's growth medium or DMEM without thapsigargin, and cells were incubated for 2 or 4 hours at 37° C. Control cells underwent the same media changes but were not subjected to thapsigargin treatment.
Following the second incubation, the filter grown monolayers were washed once with phosphate buffered saline supplemented with calcium and magnesium (150 mM NaCl, 10 mM NaPi, pH 7.4, 1 mM MgCl2, 0.1 mM CaCl2), after which they were fixed for 10 minutes in −20° C. 100% methanol. Immunofluorescence labeling was performed using the well characterized 169 and 181 antibodies (gift of W. Guggino, Johns Hopkins University) directed against the R domain and the prenucleotide binding fold of the CFTR protein, respectively (Crawford et al., Proc. Nat. Acad. Sci. 88:9262-9266 (1991)) and a monoclonal antibody directed against the α-subunit of the Na,K-ATPase (Gottardi and Caplan, J. Cell Biol. 121:283-293 (1993)).
Incubations with primary and rhodamine-conjugated secondary antibodies were performed as previously described (Gottardi and Caplan, Id.). Labeled cells were examined using a Zeiss LSM 410 laser scanning confocal microscope. All images are the product of 8-fold line averaging. Contrast and brightness settings were chosen so that all pixels were in the linear range. […]
To ensure that the dose of thapsigargin received by the mice was sufficient to rescue ΔF508-CFTR in airway epithelial cells, we examined the effect of nebulized thapsigargin on CFBE290^− cells. […] Filter-grown CFBE290^− cells were exposed to 1 μM nebulized thapsigargin for 3 hours and the distribution of ΔF508-CFTR was evaluated by immunofluorescence.

## C/C=C(/C)C(=O)O[C@H]1C(C)=C2[C@H]([C@@H]1OC(=O)CCCCCCC)[C@@](C)(OC(C)=O)C[C@H](OC(=O)CCC)[C@@]1(O)[C@H]2OC(=O)[C@@]1(C)O [thapsigargin]
1 μM nebulized thapsigargin for 3 hours, air-liquid interface
  distribution of ΔF508-CFTR: dramatic redistribution of ΔF508-CFTR to the apical plasmalemma
Agent dissolved in media
  ΔF508-CFTR surface delivery: present to the same extent at the apical surfaces of cells treated with nebulized or dissolved thapsigargin
